Results reported in patent publication US11249100B2, “Modular robotic systems for delivering fluid to microfluidic devices” (Worcester Polytechnic Institute, priority 2018, dated 2022).
Entries after “also recorded” stand apart in the source; their conditions may differ.

Experiments:
[1] = system: AWA chemosensory neurons; test: Automated solvent screen: optogenetically (Chrimson) evoked GCaMP calcium responses in living nematodes; assay type: in vivo, C. elegans; conditions: for effect on peak fluorescent responses to Chrimson-induced activation: <1 min exposure, compared to prior buffer control, 20 young adult animals; for persistence of suppression after returning to buffer fluid: alternating buffer control wells after solvent wells
Protocol: The C. elegans strain NZ1091 was integrated by irradiation and backcrossed at least 10×. Animals were grown and maintained at 20° C. on NGM plates with OP50 E. coli bacteria. At least 12 hrs prior to experimentation, L4 stage C. elegans were picked and transferred to 50 μM All Trans Retinal (ATR) in OP50 E. coli spotted onto an unseeded NGM plate. For the dose response experiment, C. elegans were selected as L4s the day before and tested as young adults the next day.
All solvents were prepared in Eppendorf tubes at 1% and 5% v/v concentrations to 1 mL in paralysis buffer (S. Basal buffer without cholesterol containing the acetylcholine agonist 1 mM (−)-tetramisole hydrochloride) and vortexed to mix for 30 s-1 min. Solvent dilutions were transferred to a 96 deep well plate (700µL/well). Alternating control wells were filled with 100 ng/mL fluorescein in paralysis buffer to visualize alternating solution delivery. Animals were exposed to paralysis buffer flow for ˜1-2 hrs prior to solvent delivery to keep animals stationary during recording. The 96 well plate was loaded with solvent solutions by hand the hour before recording and sealed with adhesive film (Glad® Press-n-Seal).
Methods followed those described previously. About 20-30 animals co-expressing GCaMP and Chrimson in the AWA chemosensory neuron pair were loaded into a modified high-throughput microfluidic imaging device optimized for 4× magnification with only the inlet, back pressure, worm loading, and outlet port(s) punched. Optical configurations were customized using an ASI RAMM frame and commercially available components for low-magnification wide-filed GCaMP excitation (4×/0.28 NA), compatible with Chrimson excitation, and high-resolution (1024×1024) 10 fps image acquisition. In addition to the optical set up described above, a 617 nm Mightex LED was mounted beneath the RAMM stage with an additional cube housing a 590 LP excitation dichroic to pass uniform Chrimson activation across the entire field of view. At each inlet well position, animals were exposed to solution for <1 min total, during which a 30 s delay was programmed to sufficiently fill the tubing after each well transfer for serially delivered solutions. Then, an immediate acquisition of 15 s (10 frames/s, 10 ms blue light pulse, 10 ms delay, 2×2 binning) began with a 617 nm light presence for 5 s (from 2.5 s to 7.5 s). Custom scripts were used for quantifying neuron fluorescence (Neurotracker ImageJ macro) and MATLAB17a for data analysis and visualization.
The robotic system was used to screen 14 different solvents at two concentrations (1% and 5%) for their effects on optogenetically-evoked neural responses. Solvent dilutions were prepared in a 96-well plate alternating with buffer control wells (FIG. 8A). A previously established high-throughput imaging device was used to record calcium signals from individual neurons of 20-25 young adult animals (FIG. 8B). Animals co-expressed the red-shifted channelrhodopsin (Chrimson) and the genetically encoded calcium sensor (GCaMP2.2b) in the AWA chemosensory neurons (FIG. 8C), allowing simultaneous optical stimulation and monitoring of neural responses.

[2] = system: ASER chemosensory neuron; conditions: ASER::GCaMP; downshift from base 40 mM NaCl; triplicate pulses
Protocol: Salt solutions (0-40 mM) were prepared by diluting S. Basal buffer (100 mM NaCl) with an iso-osmotic buffer of 186 mM glycerol.
Either the input stimulus (in, fluorescein for visualization) or buffer can bathe the animals depending on which control channel flows (c1 for input, c2 for buffer). […] Triplicate pulses (10 s) are delivered once per minute at a given concentration, followed by an increase in concentration with a delay of ˜45 s.
Animals expressing GCaMP in the ASER chemosensory neuron, which responds to salt downshifts, were stimulated with triplicate repeat pulses of NaCl, decreasing from a base 40 mM NaCl to a variable level from 40 mM (0 change) to 0 mM (−40 mM change).

[3] = system: AWA chemosensory neurons; test: Automated diacetyl odor dose response, GCaMP calcium imaging; assay type: in vivo, C. elegans
[4] = 1% v/v solvent in paralysis buffer
[5] = 5% v/v solvent in paralysis buffer

SMILES	effect on peak fluorescent responses to Chrimson-induced activation [1, 4]	effect on peak fluorescent responses to Chrimson-induced activation [1, 5]	persistence of suppression after returning to buffer fluid [1]	also measured
CN(C)C=O [DMF]	weaker suppressive effects	–	–	–
C[S+](C)[O-] [DMSO]	variable and weakly suppressed responses; also recorded: weaker suppressive effects	–	–	–
[Cl-].[Na+] [NaCl]	–	–	–	NaCl shift giving a minimal but robust response in ASE [2]: shift from 40 mM to 35 mM
CC(C)=O [acetone]	–	weaker suppressive effects	–	–
CC#N [acetonitrile]	–	significantly suppressed; also recorded: most significant suppressive effects	transient	–
CC(=O)C(C)=O [diacetyl]	–	–	–	diacetyl concentration giving a minimal but robust odor response in AWA ([3]; AWA::GCaMP young adults, triplicate odor pulses once per minute): 0.1 µM; odor-evoked neural responses versus concentration ([3]; AWA::GCaMP, diacetyl from 0.1 μM to 1 mM): strengthened with increasing odor concentration
CCO [ethanol]	–	variable and weakly suppressed responses; also recorded: most significant suppressive effects	–	–
CC(C)O [isopropanol]	significantly suppressed	significantly suppressed; also recorded: most significant suppressive effects	transient	effect on optogenetically-evoked neural responses ([1]; solvents at 1% and 5%, concentration not separated): suppression of optogenetic stimulation
CO [methanol]	significantly suppressed	significantly suppressed; also recorded: most significant suppressive effects	transient	–
